# Source: patent US8309730B2, “Nonsteroidal compounds useful as modulators of glucocorticoid receptor AP-1 and/or NF-kappab acitivity and use thereof” (Bristol-Myers Squibb Company, priority 2007, dated 2012)
# Molecular target: T1, human glucocorticoid receptor (Homo sapiens, UniProt P04150)
# T1 construct: purified human recombinant full-length glucocorticoid receptor (2 nM); purchased Invitrogen Part #2893
# T1 sequence (P04150 1-777): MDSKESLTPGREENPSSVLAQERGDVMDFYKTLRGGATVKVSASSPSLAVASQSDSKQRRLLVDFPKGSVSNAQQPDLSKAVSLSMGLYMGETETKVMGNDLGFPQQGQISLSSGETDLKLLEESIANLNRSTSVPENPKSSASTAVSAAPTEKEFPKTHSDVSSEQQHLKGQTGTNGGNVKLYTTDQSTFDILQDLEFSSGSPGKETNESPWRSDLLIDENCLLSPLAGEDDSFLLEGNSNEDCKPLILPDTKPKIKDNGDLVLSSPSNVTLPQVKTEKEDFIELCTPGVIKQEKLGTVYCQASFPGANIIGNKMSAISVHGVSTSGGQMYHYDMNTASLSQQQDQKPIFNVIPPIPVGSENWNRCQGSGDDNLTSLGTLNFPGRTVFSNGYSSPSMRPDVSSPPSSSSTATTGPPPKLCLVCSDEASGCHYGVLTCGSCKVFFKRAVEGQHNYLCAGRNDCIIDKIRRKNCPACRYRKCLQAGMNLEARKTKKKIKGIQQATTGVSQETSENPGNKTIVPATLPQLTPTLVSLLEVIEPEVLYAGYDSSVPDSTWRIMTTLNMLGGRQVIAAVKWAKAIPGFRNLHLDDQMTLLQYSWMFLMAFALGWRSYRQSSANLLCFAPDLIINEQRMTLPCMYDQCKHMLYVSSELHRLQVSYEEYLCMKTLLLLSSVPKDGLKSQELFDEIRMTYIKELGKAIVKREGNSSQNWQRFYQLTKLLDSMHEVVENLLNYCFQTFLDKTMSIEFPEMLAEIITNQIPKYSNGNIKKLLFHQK
# Experiment: Glucocorticoid Receptor Binding Assay (I), fluorescence polarization competitor kit
# Conditions: purified human recombinant full-length GR, Fluormone GS Red, 2 h room temperature
# Experimental: Briefly, purified human recombinant full-length glucocorticoid receptor (2 nM) was mixed with fluorescently labeled glucocorticoid (1 nM Fluormone GS Red) in the presence or absence of test compound. After two hours incubation at room temperature in the dark, the fluorescence polarization (FP) of the sample was measured. […] Test compounds were analyzed in the concentration range from 8.5E-05 μM to 5 μM.
row,Compound,Ki
1,C[C@]12Cn3cnc(-c4ccccc4)c3C=C1CCC[C@@H]2[C@@H](O)Cc1ccccc1 (racemic) [Example 20],18.3 nM
2,C[C@]12Cn3cnc(-c4ccccc4)c3C=C1CCC[C@@H]2[C@@H](O)C1CCCCC1 (racemic) [Example 21],20.2 nM
3,COc1cccc([C@@H](O)[C@H]2CCCC3=Cc4c(-c5ccccc5)ncn4C[C@@]32C)c1 (racemic) [Example 23],57.5 nM
4,C[C@H](O)[C@H]1CCCC2=Cc3c(-c4ccccc4)ncn3C[C@@]21C (racemic) [Example 24],364 nM
5,C[C@@H](O)[C@H]1CCCC2=Cc3c(-c4ccccc4)ncn3C[C@@]21C (racemic) [Example 25],202 nM
6,C[C@]12Cn3cnc(-c4ccccc4)c3C=C1CCC[C@@H]2C(=O)c1ccccc1 (racemic) [Example 33],> 1150 nM
7,CC[C@@](O)(c1ccccc1)[C@H]1CCCC2=Cc3c(-c4ccccc4)ncn3C[C@@]21C (racemic) [Example 36],8.71 nM
8,C[C@]12Cn3cnc(-c4ccccc4)c3C=C1CCC[C@@H]2[C@](O)(c1csc2ccccc12)C(F)(F)F (racemic) [Example 38],111 nM
9,CC12Cn3cnc(-c4ccc(F)cc4)c3C=C1CCCC2(O)c1ccc(Cl)cc1 (racemic) [Example 103],216 nM
10,"C[C@]12Cn3cnc(-c4ccccc4)c3C=C1CCC[C@@H]2[C@@H](O)c1ccccc1 (single isomer, unassigned) [Example 14]",65 nM
11,"C[C@]12Cn3cnc(-c4ccccc4)c3C=C1CCC[C@@H]2[C@H](O)c1csc2ccccc12 (single isomer, unassigned) [Example 28]",493 nM
12,"C[C@]12Cn3cnc(-c4ccccc4)c3C=C1CCC[C@@H]2[C@@H](O)c1csc2ccccc12 (single isomer, unassigned) [Example 30]",22.5 nM
13,"C[C@]12Cn3cnc(-c4ccc(F)cc4)c3C=C1CCC[C@@H]2C(=O)c1csc2ccccc12 (single isomer, unassigned) [Example 44]",> 1150 nM
14,"C[C@]12Cn3cnc(-c4ccc(F)cc4)c3C=C1CCC[C@@H]2[C@](C)(O)c1csc2ccccc12 (single isomer, unassigned) [Example 45]",73.2 nM
15,"CO[C@](C)(c1cccs1)[C@H]1CCCC2=Cc3c(-c4ccc(F)cc4)ncn3C[C@@]21C [Example 2, (5aR,6S)-1-(4-Fluorophenyl)-6-((S)-1-methoxy-1-(thiophen-2-yl)ethyl)-5a-methyl-5,5a,6,7,8,9-hexahydroimidazo[1,5-b]isoquinoline]",69.8 nM
16,"C[C@]12Cn3cnc(-c4ccc(F)cc4)c3C=C1CCC[C@@H]2CO [Example 4a, ((5aR,6S)-1-(4-Fluorophenyl)-5a-methyl-5,5a,6,7,8,9-hexahydroimidazo[1,5-b]isoquinolin-6-yl)methanol]",111 nM
17,"C[C@]12Cn3cnc(-c4ccc(F)cc4)c3C=C1CCC[C@@H]2[C@](C)(O)c1ncccn1 [Example 11, (S)-1-((5aR,6S)-1-(4-Fluorophenyl)-5a-methyl-5,5a,6,7,8,9-hexahydroimidazo[1,5-b]isoquinolin-6-yl)-1-(pyrimidin-2-yl)ethanol]",68.2 nM
18,CC(=O)[C@H]1CCCC2=Cc3c(-c4ccccc4)ncn3C[C@@]21C [Example 26],> 1150 nM
19,C[C@]12Cn3cnc(-c4ccc(F)cc4)c3C=C1CCC[C@@H]2C(=O)c1ccc(F)cc1 [Example 47],878 nM
20,C[C@]12Cn3cnc(-c4ccc(F)cc4)c3C=C1CCC[C@@H]2[C@@H](O)c1ccc(F)cc1 [Example 49],35.3 nM
21,CC(C)C[C@@](C)(O)[C@H]1CCCC2=Cc3c(-c4ccc(F)cc4)ncn3C[C@@]21C [Example 59],9.67 nM
22,C[C@]12Cn3cnc(-c4ccc(F)cc4)c3C=C1CCC[C@@H]2[C@](C)(O)c1ccc(C#N)cc1 [Example 79],3.42 nM

# Second part, the compound after the results:
row,Ki,Compound
1,94.4 nM,COc1cccc([C@H](O)[C@H]2CCCC3=Cc4c(-c5ccccc5)ncn4C[C@@]32C)c1 (racemic) [Example 22]
2,> 1150 nM,C[C@]12Cn3cnc(-c4ccccc4)c3C=C1CCC[C@@H]2C(=O)c1csc2ccccc12 (racemic) [Example 34]
3,6.4 nM,C[C@]12Cn3cnc(-c4ccccc4)c3C=C1CCC[C@@H]2[C@](C)(O)c1ccccc1 (racemic) [Example 35]
4,209 nM,CC[C@@](O)(c1csc2ccccc12)[C@H]1CCCC2=Cc3c(-c4ccccc4)ncn3C[C@@]21C (racemic) [Example 37]
5,19.7 nM,CC12Cn3cnc(-c4ccc(F)cc4)c3C=C1CCCC2(O)CCc1ccccc1 (racemic) [Example 102]
6,> 1150 nM,"C[C@]12Cn3cnc(-c4ccccc4)c3C=C1CCC[C@@H]2[C@@H](O)c1ccccc1 (single isomer, unassigned) [Example 13]"
7,> 1150 nM,"C[C@]12Cn3cnc(-c4ccccc4)c3C=C1CCC[C@@H]2[C@](C)(O)c1csc2ccccc12 (single isomer, unassigned) [Example 32]"
8,> 1150 nM,"C[C@]12Cn3cnc(-c4ccc(F)cc4)c3C=C1CCC[C@@H]2C(=O)c1csc2ccccc12 (single isomer, unassigned) [Example 43]"
9,1.43 nM,"C[C@]12Cn3cnc(-c4ccc(F)cc4)c3C=C1CCC[C@@H]2[C@](C)(O)c1csc2ccccc12 (single isomer, unassigned) [Example 46]"
10,215 nM,"C[C@]12Cn3cnc(-c4ccc(F)cc4)c3C=C1CCC[C@@H]2CNc1nccs1 [Example 4b, N-(((5aR,6S)-1-(4-fluorophenyl)-5a-methyl-5,5a,6,7,8,9-hexahydroimidazo[1,5-b]isoquinolin-6-yl)methyl)thiazol-2-amine]"
11,7.13 nM,"C[C@]12Cn3cnc(-c4ccc(F)cc4)c3C=C1CCC[C@@H]2CC(=O)Nc1nncs1 [Example 6, 2-((5aR,6R)-1-(4-fluorophenyl)-5a-methyl-5,5a,6,7,8,9-hexahydroimidazo[1,5-b]isoquinolin-6-yl)-N-(1,3,4-thiadiazol-2-yl)acetamide]"
12,95.7 nM,"CC(C)(C)NC(=O)NCC[C@H]1CCCC2=Cc3c(-c4ccc(F)cc4)ncn3C[C@@]21C [Example 7, 1-tert-Butyl-3-(2-((5aR,6R)-1-(4-fluorophenyl)-5a-methyl-5,5a,6,7,8,9-hexahydroimidazo[1,5-b]isoquinolin-6-yl)ethyl)urea]"
13,2.12 nM,"C[C@]12Cn3cnc(-c4ccc(F)cc4)c3C=C1CCC[C@@H]2[C@](C)(O)c1cccc(S(C)(=O)=O)c1 [Example 8a, (S)-1-((5aR,6S)-1-(4-fluorophenyl)-5a-methyl-5,5a,6,7,8,9-hexahydroimidazo[1,5-b]isoquinolin-6-yl)-1-(3-(methylsulfonyl)phenyl)ethanol]"
14,29.7 nM,C[C@]12Cn3cnc(-c4ccc(F)cc4)c3C=C1CCC[C@@H]2[C@H](O)c1ccc(F)cc1 [Example 50]
15,7.38 nM,C=CC[C@H](O)[C@H]1CCCC2=Cc3c(-c4ccc(F)cc4)ncn3C[C@@]21C [Example 51]
16,8.67 nM,C=CC[C@@H](O)[C@H]1CCCC2=Cc3c(-c4ccc(F)cc4)ncn3C[C@@]21C [Example 52]
17,59.9 nM,C[C@]12Cn3cnc(-c4ccc(F)cc4)c3C=C1CCC[C@@H]2[C@](C)(O)C#Cc1ccccc1 [Example 70]
18,> 1150 nM,C[C@]12Cn3cnc(-c4ccc(F)cc4)c3C=C1CCC[C@@H]2C(=O)c1ccccc1CN1CCCC1 [Example 72]
19,207 nM,Cc1cccc(C)c1C(=O)[C@H]1CCCC2=Cc3c(-c4ccc(F)cc4)ncn3C[C@@]21C [Example 76]
